Source: patent US20160213739A1, “TREATMENTS FOR DISORDERS USING GUANYLATE CYCLASE C AGONISTS” (Ironwood Pharmaceuticals, Inc., priority 2011, published 2016)
Positions of bridges follow the written chain, without caps; N, C: chain ends. Non-standard residues stand in square brackets, D forms with d. Residues, ends and D or L forms follow the SMILES beside them. pS = N[C@@H](COP(=O)(O)O)C(=O)O

Key:
[1] = In vitro metabolism in mouse jejunum loop fluid; assay type: in vitro ADME; conditions: 37° C.; for metabolism in the control reaction: control reaction (1 M Tris-HCl), 120 minute incubation
Method: The purpose of this study was to determine the stability of phosphorylated peptides in mouse jejunal loop fluid. […] The isotopically labeled peptide 2 was synthesized with ^13C, ^15N-labeled alanine and leucine (i.e., with a sequence CCpS[^13C6, ^15N]LCCNP[^13C6, ^15N]ACTGC).
Each peptide was synthesized by American Peptide Company, Inc., and was stored desiccated at −20° C. A 1 mg/mL solution for each of the non-labeled peptides was prepared in 1 M tris (hydroxymethyl) aminomethane hydrochloride (Tris-HCl), pH 8 just prior to conducting the mouse intestinal loop fluid assay. A 500 ng/mL solution of ^13C, ^15N-labeled peptide 2 was prepared in 0.1% formic acid in water and was utilized to dilute the jejunum samples for post-assay LC-MS/MS analysis.
To collect the fluid, mice were fasted overnight with full access to water. They were then anesthetized with isofluorane for surgery and subjected to laparotomy in which the small intestine was exteriorized. Jejunum loops of 3 to 4 cm in length were made with sutures starting at 7 cm from the pyloric sphincter of the stomach. Once the loops were formed, they were injected with 200 μL of phosphate buffered saline (PBS) buffer (10 mM, pH 7.4). The abdominal wall and skin of the animals were then sutured, and the animals were allowed to recover for 30 minutes. Following recovery, the animals were sacrificed, the loops were then excised and the fluid inside was recovered and stored at −80° C. until use.
For each peptide, 254 of the 1 mg/mL peptide stock solution was added to 25 of 1 M Tris-HCl and 25 μL of 10× calf intestinal phosphatase (CIP) buffer containing 500 mM Tris-HCl, 1 M sodium chloride (NaCl), […] (MgCl2), pH 8. The reactions were initiated by adding 175 pit of the mouse jejunum loop fluid or 175 μL of the 1 M Tris-HCl pH8 buffer for the control reactions. The final concentration of each peptide was 100 μg/mL. The reactions were continuously mixed and maintained at 37° C. on a plate shaker. At 0, 2, 5, 10, 20, 30, 60, 90 and 120 minutes after adding the mouse intestinal loop fluid, a 25 μL aliquot was taken and added to 25 μL of 4° C. 12% trichloroacetic acid to stop the reaction. An additional 200 μL of 0.1% formic acid in water was added to these reactions for dilution purposes. These samples were then further diluted by taking 20 μL of each sample and adding it to 480 μL of 0.1% formic acid in water containing 500 ng/mL of the internal standard ^13C, ^15N-labeled peptide 2.
All samples were analyzed using an Applied Biosystems/MDS SCIEX API 4000 triple quadrupole mass spectrometer equipped with a high-performance liquid chromatography (HPLC) system. The mass spectrometer was operated in multiple reaction monitoring (MRM) mode, with resolution set to 1.2 Da.
The LC-MS/MS data were processed using Analyst version 1.4.2 software (Applied Biosystems/MDS SCIEX). The peak area ratio (ratio of analyte peak area to internal standard peak area) was used to calculate the percent remaining of each peptide.

[2] = target: T1, human prostate acid phosphatase (HuPrAP) (Homo sapiens, UniProt P15309); assay: Acid phosphatase reaction, human prostate acid phosphatase; assay type: in vitro ADME; conditions: Human prostatic acid phosphatase pH 5, 90 minutes at 37° C.
T1 construct: purchased MP Biochemicals 153872
T1 sequence (P15309 33-386): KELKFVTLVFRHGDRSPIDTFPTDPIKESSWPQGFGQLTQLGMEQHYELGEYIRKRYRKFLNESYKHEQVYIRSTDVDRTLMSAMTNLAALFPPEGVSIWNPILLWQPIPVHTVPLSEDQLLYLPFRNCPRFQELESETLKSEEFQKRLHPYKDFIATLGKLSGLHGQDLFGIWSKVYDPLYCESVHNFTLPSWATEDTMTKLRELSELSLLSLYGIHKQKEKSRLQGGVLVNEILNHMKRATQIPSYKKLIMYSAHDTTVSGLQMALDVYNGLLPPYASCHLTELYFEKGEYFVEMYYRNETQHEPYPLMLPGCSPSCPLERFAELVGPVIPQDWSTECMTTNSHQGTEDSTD
Method: (§1) For the alkaline phosphatase reactions, peptide stocks were prepared at 1 mg/mL in 0.1 M Tris-HCl pH 8, which were stored at −20° C. until assays were conducted. For the acid phosphatase reactions, peptide stocks were prepared at 1 mg/mL in 50 mM sodium phosphate pH 6, which was stored at −20° C. until assays were conducted.
(§2) Potato acid phosphatase (PoAP) was obtained from Sigma, St. Louis, Miss. Cat #P1146 and human prostate acid phosphatase (HuPrAP) was obtained from MP Biochemicals, Solon, Ohio. Cat #153872. The acid phosphatases were dissolved to provide a solution containing 0.5 units AP/4 using 50 mM sodium acetate pH 5, 0.2 mM MgCl2. The acid phosphatase reactions were assembled in 20 μL quantities containing: • 2 μL 10× acid phosphatase buffer (500 mM sodium acetate pH 5, 2 mM MgCl2) • 2 μL peptide stock (1 mg/mL) • 12 μL H2O • 4 μL acid phosphatase (0.5 or 2 units)
(§3) The reaction solutions were mixed gently and incubated for 90 minutes at 37° C. The reaction solutions were stored at −20° C. for later analysis. For analysis, 7.5 μL acid phosphatase reactions were diluted to 50 μL with 0.1% formic acid in water to a final concentration of 10 μM. The control reactions for enzyme activity were assembled and diluted to 10 mM p-nitrophenylphosphate in place of peptide. After incubation, the reactions were diluted with 0.1 mL of 100 mM borate buffer pH 9 and read at the absorbance of 405 nm to monitor p-nitrophenol appearance.

[3] = tested on: Potato acid phosphatase (PoAP); assay: Acid phosphatase reaction, potato acid phosphatase; assay type: in vitro ADME; conditions: Potato acid phosphatase pH 5, 90 minutes at 37° C.
Method: as §1, §2, §3

[4] = target: T2, Calf intestinal alkaline phosphatase (CIP) (Bos taurus, UniProt P19111); assay: Alkaline phosphatase reaction on peptide substrates; assay type: in vitro ADME; conditions: for Dephospho (%) / Remaining (%): Alkaline phosphatase pH 8, 90 minutes at 37° C.
T2 construct: purchased New England BioLabs M0290S
T2 sequence (P19111 20-506): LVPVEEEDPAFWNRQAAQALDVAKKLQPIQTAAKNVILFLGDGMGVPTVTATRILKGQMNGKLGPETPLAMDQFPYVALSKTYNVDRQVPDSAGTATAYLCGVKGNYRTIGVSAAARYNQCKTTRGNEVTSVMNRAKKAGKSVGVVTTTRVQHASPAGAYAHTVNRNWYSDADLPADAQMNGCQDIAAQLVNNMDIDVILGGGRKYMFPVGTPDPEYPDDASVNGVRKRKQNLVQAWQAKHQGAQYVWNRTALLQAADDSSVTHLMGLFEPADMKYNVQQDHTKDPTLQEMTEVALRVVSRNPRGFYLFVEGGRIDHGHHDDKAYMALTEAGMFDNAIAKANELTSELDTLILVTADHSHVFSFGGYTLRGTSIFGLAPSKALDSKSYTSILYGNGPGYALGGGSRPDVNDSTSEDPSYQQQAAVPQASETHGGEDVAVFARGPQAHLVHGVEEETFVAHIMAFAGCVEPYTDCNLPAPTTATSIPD
Method: as §1
Calf intestinal alkaline phosphatase (CIP) was obtained from New England BioLabs, Ipswich, Mass. Cat # M0290S. The CIP reaction solution was prepared by dilution with buffer (50 mM KCl, 10 mM Tris-HCl pH 8, 1 mM MgCl2, 50% glycerol) to 0.5 units/4. The alkaline phosphatase reaction solutions were assembled in 20 μL quantities containing:
2 μL 10×CIP buffer (1M NaCl, 500 mM Tris-HCl pH 8, 100 mM MgCl2)
2 μL peptide stock (1 mg/mL)
4 μL alkaline phosphatase (0, 0.5 or 2 units)
The reaction solutions were mixed gently and incubated for 90 minutes at 37° C. These reaction solutions were stored at −20° C. until analysis. For analysis, the reaction solutions were diluted from 7.5 μL of CIP treated peptide to 50 μL with 0.1% formic acid in water to a final concentration of 10 μM.
Control reactions were assembled for enzyme activity containing 10 mM p-nitrophenylphosphate in place of peptide. After incubation, the reactions were diluted with 0.1 mL of 100 mM borate buffer pH 9 and read at the absorbance of 405 nm to monitor p-nitrophenol appearance.

[5] = after oral administration at therapeutic dose levels; cited from earlier work

| Compound | metabolism in the control reaction [1] | degradation in mouse intestinal fluid compared with peptide 2 [1] | Dephospho (%) [2] | Dephospho (%) [3] | Dephospho (%) [4] | Remaining (%) [4] | also measured |
| --- | --- | --- | --- | --- | --- | --- | --- |
| CC(C)C[C@@H]1NC(=O)[C@H](CO)NC(=O)[C@@H]2CSSC[C@@H]3NC(=O)[C@H](C)NC(=O)[C@@H]4CCCN4C(=O)[C@H](CC(N)=O)NC(=O)[C@H](CSSC[C@H](N)C(=O)N2)NC(=O)[C@H](CSSC[C@@H](C(=O)O)NC(=O)CNC(=O)[C@H]([C@@H](C)O)NC3=O)NC1=O [Dephospho-Peptide 2, CCSLCCNPACTGC] (H-CCSLCCNPACTGC-OH; disulfide 1-6, 2-10, 5-13 (inferred); N-terminus and C-terminus assumed) | not metabolized | degraded faster | – | – | – | – | – |
| CC(C)C[C@@H]1NC(=O)[C@H](COP(=O)(O)O)NC(=O)[C@@H]2CSSC[C@@H]3NC(=O)[C@H](C)NC(=O)[C@@H]4CCCN4C(=O)[C@H](CC(N)=O)NC(=O)[C@H](CSSC[C@H](N)C(=O)N2)NC(=O)[C@H](CSSC[C@@H](C(=O)N[C@@H](Cc2ccc(O)cc2)C(=O)O)NC(=O)CNC(=O)[C@H]([C@@H](C)O)NC3=O)NC1=O [Peptide 1, CCpSLCCNPACTGCY] (H-CC[pS]LCCNPACTGCY-OH; disulfide 1-6, 2-10, 5-13 (inferred); N-terminus and C-terminus assumed) | – | – | 6.2% | 22.1% | 100% | 0% | – |
| CC(C)C[C@@H]1NC(=O)[C@H](COP(=O)(O)O)NC(=O)[C@@H]2CSSC[C@@H]3NC(=O)[C@H](C)NC(=O)[C@@H]4CCCN4C(=O)[C@H](CC(N)=O)NC(=O)[C@H](CSSC[C@H](N)C(=O)N2)NC(=O)[C@H](CSSC[C@@H](C(=O)O)NC(=O)CNC(=O)[C@H]([C@@H](C)O)NC3=O)NC1=O [Peptide 2, CCpSLCCNPACTGC] (H-CC[pS]LCCNPACTGC-OH; disulfide 1-6, 2-10, 5-13 (inferred); N-terminus and C-terminus assumed) | not metabolized | – | 4.1% | – | 100% | – | metabolite formed ([1]; mouse jejunum fluid, increased for the first 20 minutes then slow decrease): dephospho-peptide 2 |
| CC(C)C[C@@H]1NC(=O)[C@H](CCC(=O)O)NC(=O)[C@@H]2CSSC[C@@H]3NC(=O)[C@H](C)NC(=O)[C@@H]4CCCN4C(=O)[C@H](CC(N)=O)NC(=O)[C@H](CSSC[C@H](N)C(=O)N2)NC(=O)[C@H](CSSC[C@@H](C(=O)N[C@@H](Cc2ccc(O)cc2)C(=O)O)NC(=O)CNC(=O)[C@H]([C@@H](C)O)NC3=O)NC1=O [Peptide 3, CCELCCNPACTGCY] (H-CCELCCNPACTGCY-OH; disulfide 1-6, 2-10, 5-13 (inferred); N-terminus and C-terminus assumed) | not metabolized | degraded faster | – | – | – | – | peptide detected after 90 minutes ([1]; mouse jejunum fluid, 100 μg/mL peptide): not detected; Effect of CIP treatment on the peptide (LC-MS) ([4]; with and without calf intestinal alkaline phosphatase, data not shown): not affected |
| C[C@@H]1NC(=O)[C@@H]2CCCN2C(=O)[C@H](CC(N)=O)NC(=O)[C@@H]2CSSC[C@H](N)C(=O)N[C@H]3CSSC[C@H](NC1=O)C(=O)N[C@@H]([C@@H](C)O)C(=O)NCC(=O)N[C@H](C(=O)N[C@@H](Cc1ccc(O)cc1)C(=O)O)CSSC[C@H](NC(=O)[C@H](Cc1ccc(O)cc1)NC(=O)[C@H](CCC(=O)O)NC3=O)C(=O)N2 [linaclotide, Linaclotide] (H-CCEYCCNPACTGCY-OH; disulfide 1-6, 2-10, 5-13) | – | – | – | – | – | – | levels seen systemically [5]: no detectable levels |
| O=[N+]([O-])c1ccc(OP(=O)(O)O)cc1 [p-nitrophenylphosphate] | – | – | 100% | 100% | 100% | 0% | Remaining (%) [2]: 0%; Remaining (%) [3]: 0% |
